Source: the supplement of paper PMC11061612

Key:
Test in all cases: combination Emax (second highest fraction inhibited in the dose matrix, 72 h); higher = more inhibition; extreme values may be limits of the assay
[1] = tested on: BFTC-909 (Kidney Carcinoma)
Procedure, shortened: (§1)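 After 24 hours at 37°C and 5% CO2 in 1536-well plates, cells in DMEM/F12 or RPMI plus 10% FBS received two-drug dose matrices for 72 hours. Viability came from CellTiter-Glo 2.0 luminescence and was scaled as inhibition, anchored at 0 by vehicle wells and at 1 by blank wells. Combination Emax is taken as the second-highest inhibition in the matrix, and Bliss excess as the observed combination effect less EA + EB − EA·EB, with EA and EB the single-agent effects.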

[2] = tested on: SNU-16 (Gastric Carcinoma)
Procedure, shortened: as §1

[3] = tested on: LCLC-97TM1 (Non-Small Cell Lung Carcinoma)
Procedure, shortened: as §1

[4] = tested on: KYAE-1 (Esophageal Adenocarcinoma)
Procedure, shortened: as §1

[5] = tested on: NCI-H524 (Small Cell Lung Carcinoma)
Procedure, shortened: as §1

GAMG (Glioblastoma) = tested on: GAMG (Glioblastoma)
Procedure, shortened: as §1

LOXIMVI (Melanoma) = tested on: LOXIMVI (Melanoma)
Procedure, shortened: as §1

[6] = tested on: OV-56 (Ovarian Carcinoma)
Procedure, shortened: as §1

[7] = tested on: SAS (Oral Cavity Carcinoma)
Procedure, shortened: as §1

NCI-H2722 (Mesothelioma) = tested on: NCI-H2722 (Mesothelioma)
Procedure, shortened: as §1

EW-11 (Ewing's Sarcoma) = tested on: EW-11 (Ewing's Sarcoma)
Procedure, shortened: as §1

[8] = tested on: LS-123 (Colorectal Carcinoma)
Procedure, shortened: as §1

[9] = tested on: LNZTA3WT4 (Low Grade Glioma)
Procedure, shortened: as §1

[10] = tested on: HeLa (Cervical Carcinoma)
Procedure, shortened: as §1

[11] = tested on: SW1710 (Bladder Carcinoma)
Procedure, shortened: as §1

[12] = tested on: SNU-449 (Hepatocellular Carcinoma)
Procedure, shortened: as §1

[13] = tested on: WSU-NHL (B-Cell Non-Hodgkin's Lymphoma)
Procedure, shortened: as §1

[14] = tested on: Hs-746T (Gastric Carcinoma)
Procedure, shortened: as §1

[15] = tested on: ALL-PO (B-Lymphoblastic Leukemia)
Procedure, shortened: as §1

[16] = tested on: L-428 (Hodgkin's Lymphoma)
Procedure, shortened: as §1

SMILES | combination Emax [1] | combination Emax [2] | combination Emax [3] | combination Emax [4] | combination Emax [5] | combination Emax (GAMG (Glioblastoma)) | combination Emax (LOXIMVI (Melanoma)) | combination Emax [6] | combination Emax [7] | combination Emax (NCI-H2722 (Mesothelioma)) | combination Emax (EW-11 (Ewing's Sarcoma)) | combination Emax [8] | combination Emax [9] | combination Emax [10] | combination Emax [11] | combination Emax [12] | combination Emax [13] | combination Emax [14] | combination Emax [15] | combination Emax [16]
COc1cccc(OCCCN)c1-c1cc(Nc2cnc(C#N)cn2)n[nH]1 [Prexasertib] + C[C@@H]1COCCN1C2=NC(=NC(=C2)C3(CC3)[S@](=N)(=O)C)C4=C5C=CNC5=NC=C4 [AZD6738] (first compound max 1 µM, 7x7, partner max 10 µM) | 0.94 | 1 | 0.941 | 0.573 | 0.998 | 0.874 | 0.849 | 0.916 | 0.943 | 0.304 | 0.734 | 0.796 | 0.91 | 0.864 | 0.771 | 0.282 | 1 | 0.754 | 0.982 | 0.95
COc1cccc(OCCCN)c1-c1cc(Nc2cnc(C#N)cn2)n[nH]1 [Prexasertib] + Cc1cc2ncnn2cc1Nc1ncc2c(n1)n(C1CCOCC1)c(=O)n2C [AZD7648] (first compound max 1 µM, 7x7, partner max 10 µM) | 0.945 | 0.998 | 0.938 | 0.467 | 0.988 | 0.777 | 0.784 | 0.88 | 0.926 | 0.216 | 0.742 | 0.764 | 0.9 | 0.839 | 0.728 | 0.308 | 1 | 0.78 | 0.993 | 0.958
COc1cccc(OCCCN)c1-c1cc(Nc2cnc(C#N)cn2)n[nH]1 [Prexasertib] + O=C(c1cc(Cc2n[nH]c(=O)c3ccccc23)ccc1F)N1CCN(C(=O)C2CC2)CC1 [Olaparib] (first compound max 1 µM, 7x7, partner max 10 µM) | 0.917 | 1 | 0.936 | 0.56 | 0.929 | 0.83 | 0.788 | 0.89 | 0.93 | 0.234 | 0.792 | 0.771 | 0.885 | 0.773 | 0.761 | 0.234 | 1 | 0.806 | 0.979 | 0.953
CCc1c2c(nc3ccc(O)cc13)-c1cc3c(c(=O)n1C2)COC(=O)[C@]3(O)CC [SN-38] + CN(C)CCCOc1ccc(-c2ccc3ncc4c(c3c2)n(C2CCOCC2)c(=O)n4C)cn1 [AZD0156] (first compound max 0.3 µM, 7x7, partner max 1 µM) | 0.899 | 0.927 | 0.693 | 0.105 | 0.608 | 0.737 | 0.784 | 0.88 | 1 | 0.301 | 0.739 | 0.481 | 0.449 | 0.295 | 0.312 | 0.196 | 1 | 0.531 | 0.985 | 0.894
Cn1cnc2c(F)c(Nc3ccc(Br)cc3Cl)c(C(=O)NOCCO)cc21 [Selumetinib] + C=CCn1c(=O)c2cnc(Nc3ccc(N4CCN(C)CC4)cc3)nc2n1-c1cccc(C(C)(C)O)n1 [AZD1775] (first compound max 10 µM, partner max 1 µM) | 0.646 | 0.802 | 0.87 | 0.116 | 0.617 | 0.527 | 0.854 | 0.0799 | 0.678 | 0.304 | 0.42 | 0.542 | 0.57 | 0.437 | 0.264 | 0.129 | 0.854 | 0.636 | 0.978 | 0.808
Cn1cnc2c(F)c(Nc3ccc(Br)cc3Cl)c(C(=O)NOCCO)cc21 [Selumetinib] + CC(C)n1c(=O)n(C)c2cnc3cc(F)c(-c4ccc(OCCCN5CCCCC5)nc4)cc3c21 [AZD1390] (first compound max 10 µM, 7x7, partner max 0.3 µM) | 0.184 | 0.36 | 0.528 | 0.144 | 0.0936 | 0.151 | 0.658 | 0.133 | 0.408 | 0.0639 | 0.103 | 0.488 | 0.226 | 0.0672 | 0.196 | 0.16 | 0.205 | 0.411 | 0.301 | 0.0975
Cn1cnc2c(F)c(Nc3ccc(Br)cc3Cl)c(C(=O)NOCCO)cc21 [Selumetinib] + CCN(CCO)CCCOc1ccc2c(Nc3cc(CC(=O)Nc4cccc(F)c4)[nH]n3)ncnc2c1 [AZD2811] (first compound max 10 µM, 7x7, partner max 1 µM) | 0.314 | 0.561 | 0.647 | 0.0661 | 0.955 | 0.52 | 0.683 | 0.116 | 0.471 | 0.186 | 0.199 | 0.425 | 0.226 | 0.171 | 0.214 | 0.221 | 0.642 | 0.478 | 1 | 0.235
Cn1cnc2c(F)c(Nc3ccc(Br)cc3Cl)c(C(=O)NOCCO)cc21 [Selumetinib] + C[C@@H]1COCCN1C2=NC(=NC(=C2)C3(CC3)[S@](=N)(=O)C)C4=C5C=CNC5=NC=C4 [AZD6738] (first compound max 10 µM, 7x7, partner max 10 µM) | 0.797 | 0.966 | 0.756 | 0.0615 | 0.681 | 0.469 | 0.778 | 0.29 | 0.806 | 0.277 | 0.592 | 0.517 | 0.712 | 0.486 | 0.26 | 0.111 | 0.817 | 0.579 | 0.96 | 0.69
CC(=O)Nc1cccc(-n2c(=O)n(C3CC3)c(=O)c3c(Nc4ccc(I)cc4F)n(C)c(=O)c(C)c32)c1 [Trametinib] + Cc1nc(-c2cn3c(n2)-c2ccc(-c4cnn(C(C)(C)C(N)=O)c4)cc2OCC3)n(C(C)C)n1 [Taselisib] (first compound max 1 µM, 7x7, partner max 10 µM) | 0.781 | 0.955 | 1 | 0.893 | 0.829 | 0.783 | 1 | 0.607 | 0.882 | 0.666 | 0.676 | 0.885 | 0.671 | 0.42 | 0.532 | 0.559 | 0.76 | 0.606 | 0.795 | 0.204
CC1(C)CCC(CN2CCN(c3ccc(C(=O)NS(=O)(=O)c4ccc(NCC5CCOCC5)c([N+](=O)[O-])c4)c(Oc4cnc5[nH]ccc5c4)c3)CC2)=C(c2ccc(Cl)cc2)C1 [Venetoclax] + C1CN(CCC1(C(=O)N[C@@H](CCO)C2=CC=C(C=C2)Cl)N)C3=NC=NC4=C3C=CN4 [Capivasertib] (first compound max 1 µM, 7x7, partner max 3 µM) | 0.554 | 0.189 | 0.298 | 0.407 | 0.166 | 0.505 | 0.247 | 0.153 | 0.286 | 0.162 | 0.711 | 0.34 | 0.508 | 0.22 | 0.23 | 0.222 | 0.977 | 0.275 | 0.669 | 0.0426
CC1(C)CCC(CN2CCN(c3ccc(C(=O)NS(=O)(=O)c4ccc(NCC5CCOCC5)c([N+](=O)[O-])c4)c(Oc4cnc5[nH]ccc5c4)c3)CC2)=C(c2ccc(Cl)cc2)C1 [Venetoclax] + C=CCn1c(=O)c2cnc(Nc3ccc(N4CCN(C)CC4)cc3)nc2n1-c1cccc(C(C)(C)O)n1 [AZD1775] (first compound max 1 µM, partner max 1 µM) | 0.667 | 0.912 | 0.891 | 0.706 | 0.895 | 0.836 | 0.622 | 0.168 | 0.761 | 0.311 | 0.715 | 0.633 | 0.917 | 0.573 | 0.315 | 0.239 | 0.985 | 0.481 | 1 | 0.851
CC1(C)CCC(CN2CCN(c3ccc(C(=O)NS(=O)(=O)c4ccc(NCC5CCOCC5)c([N+](=O)[O-])c4)c(Oc4cnc5[nH]ccc5c4)c3)CC2)=C(c2ccc(Cl)cc2)C1 [Venetoclax] + CCN(CCO)CCCOc1ccc2c(Nc3cc(CC(=O)Nc4cccc(F)c4)[nH]n3)ncnc2c1 [AZD2811] (first compound max 1 µM, 7x7, partner max 1 µM) | 0.215 | 0.523 | 0.289 | 0.163 | 0.985 | 0.598 | 0.21 | 0.195 | 0.204 | 0.23 | 0.517 | 0.162 | 0.487 | 0.279 | 0.248 | 0.239 | 0.782 | 0.161 | 1 | 0.296
CC1(C)CCC(CN2CCN(c3ccc(C(=O)NS(=O)(=O)c4ccc(NCC5CCOCC5)c([N+](=O)[O-])c4)c(Oc4cnc5[nH]ccc5c4)c3)CC2)=C(c2ccc(Cl)cc2)C1 [Venetoclax] + CN(C)CCCOc1ccc(-c2ccc3ncc4c(c3c2)n(C2CCOCC2)c(=O)n4C)cn1 [AZD0156] (first compound max 1 µM, 7x7, partner max 1 µM) | 0.144 | 0.152 | 0.105 | 0.115 | 0.321 | 0.273 | 0.588 | 0.183 | 0.256 | 0.175 | 0.69 | 0.205 | 0.4 | 0.188 | 0.239 | 0.243 | 0.811 | 0.226 | 0.516 | 0.176
